Reference: ChEMBL document CHEMBL5465560, “Selectivity Literature for EUbOPEN Chemogenomic Library” (2024)
One block for each molecule: values may come before it.

Tests used:
[1] = biological target: Adenosine receptor A1 (Homo sapiens) (UniProt P30542); test: Selectivity interaction (Eurofins CEREP Diversity Profile (receptors and ion channels)) EUB0000279b ADORA1; conditions: at 10 µM
[2] = biological target: Protein kinase C theta type (Homo sapiens, UniProt Q04759); test: Selectivity interaction (Ambit KINOMEscan and KiNATiv profiling in Jurkat cells) EUB0000090b PRKCQ; type: cell-based; conditions: at 1 µM
[3] = biological target: Serine/threonine-protein kinase 32A (Homo sapiens) (UniProt Q8WU08); test: Selectivity interaction (KinomeScan (DiscoverX)) EUB0000655a STK32A; conditions: at 10 µM
[4] = biological target: T1, Interleukin-1 receptor-associated kinase 4 (Homo sapiens) (UniProt Q9NWZ3); test: Selectivity interaction (KinomeScan (DiscoverX)) EUB0001079a IRAK4; conditions: at 1 µM
T1 sequence (whole entry): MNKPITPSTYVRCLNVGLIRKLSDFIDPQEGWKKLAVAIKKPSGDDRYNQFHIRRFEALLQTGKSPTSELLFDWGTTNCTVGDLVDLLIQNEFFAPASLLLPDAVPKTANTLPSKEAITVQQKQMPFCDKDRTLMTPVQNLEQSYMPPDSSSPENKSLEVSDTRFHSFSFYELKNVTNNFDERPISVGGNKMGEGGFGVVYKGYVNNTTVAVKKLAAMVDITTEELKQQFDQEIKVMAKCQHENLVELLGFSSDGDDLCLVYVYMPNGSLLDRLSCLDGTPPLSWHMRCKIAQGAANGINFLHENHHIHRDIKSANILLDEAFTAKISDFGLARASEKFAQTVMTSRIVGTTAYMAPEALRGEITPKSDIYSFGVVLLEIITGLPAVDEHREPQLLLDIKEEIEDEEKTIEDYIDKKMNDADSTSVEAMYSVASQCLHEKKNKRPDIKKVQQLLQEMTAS

[5] = biological target: Proto-oncogene tyrosine-protein kinase Src (Homo sapiens, UniProt P12931); test: Selectivity interaction (SelectScreen profiling (Invitrogen)) EUB0000607a SRC; conditions: at 2 µM
[6] = biological target: T2, Tyrosine-protein kinase ZAP-70 (Homo sapiens) (UniProt P43403); test: Selectivity interaction (KinomeScan (DiscoverX)) EUB0000607a ZAP70; conditions: at 10 µM
T2 sequence (whole entry): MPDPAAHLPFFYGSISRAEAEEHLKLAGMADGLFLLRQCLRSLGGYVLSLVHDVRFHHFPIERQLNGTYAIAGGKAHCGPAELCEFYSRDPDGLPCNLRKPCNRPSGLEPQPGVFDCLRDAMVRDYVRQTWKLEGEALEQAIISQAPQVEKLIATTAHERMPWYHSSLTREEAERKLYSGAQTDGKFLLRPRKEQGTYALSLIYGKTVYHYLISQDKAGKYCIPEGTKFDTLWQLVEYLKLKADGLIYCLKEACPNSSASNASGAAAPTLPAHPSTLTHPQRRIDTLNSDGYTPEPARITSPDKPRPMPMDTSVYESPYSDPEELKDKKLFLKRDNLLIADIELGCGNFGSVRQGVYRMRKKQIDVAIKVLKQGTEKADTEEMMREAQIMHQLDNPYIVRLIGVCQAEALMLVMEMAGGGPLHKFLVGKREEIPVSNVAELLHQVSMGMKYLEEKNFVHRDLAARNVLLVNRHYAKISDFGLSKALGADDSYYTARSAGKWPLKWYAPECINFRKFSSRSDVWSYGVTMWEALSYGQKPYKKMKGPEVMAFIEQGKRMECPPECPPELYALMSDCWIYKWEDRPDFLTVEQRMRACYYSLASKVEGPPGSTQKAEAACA

[7] = biological target: T3, Serine/threonine-protein kinase RIO1 (Homo sapiens) (UniProt Q9BRS2); test: Selectivity interaction (KinomeScan (DiscoverX)) EUB0000595a RIOK1; conditions: at 10 µM
T3 sequence (whole entry): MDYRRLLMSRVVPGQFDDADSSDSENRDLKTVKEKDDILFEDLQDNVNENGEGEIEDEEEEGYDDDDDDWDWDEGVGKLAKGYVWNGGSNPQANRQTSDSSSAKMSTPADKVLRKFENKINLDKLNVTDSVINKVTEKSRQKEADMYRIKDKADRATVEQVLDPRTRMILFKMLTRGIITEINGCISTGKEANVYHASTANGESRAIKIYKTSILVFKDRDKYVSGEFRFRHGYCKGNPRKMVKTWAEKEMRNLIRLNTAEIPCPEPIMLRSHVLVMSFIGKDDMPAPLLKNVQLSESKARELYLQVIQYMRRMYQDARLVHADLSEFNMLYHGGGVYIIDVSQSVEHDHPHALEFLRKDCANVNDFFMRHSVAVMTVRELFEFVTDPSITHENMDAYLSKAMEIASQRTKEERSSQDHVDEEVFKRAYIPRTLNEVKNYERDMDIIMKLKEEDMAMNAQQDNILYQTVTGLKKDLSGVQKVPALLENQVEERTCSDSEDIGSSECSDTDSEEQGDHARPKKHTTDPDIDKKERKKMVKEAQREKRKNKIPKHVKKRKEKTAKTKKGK

[8] = biological target: Protein-arginine deiminase type-4 (Homo sapiens, UniProt Q9UM07); test: Selectivity interaction (Fluorescence polarization ligand binding assay (2 mM calcium)) EUB0000266bCl PADI4
[9] = biological target: Mitogen-activated protein kinase 7 (Homo sapiens) (UniProt Q13164); test: Selectivity interaction (KinomeScan (DiscoverX)) EUB0000092b MAPK7; conditions: at 10 µM
[10] = biological target: MAP kinase-activated protein kinase 2 (Homo sapiens, UniProt P49137); test: Selectivity interaction (KinomeScan (DiscoverX)) EUB0000695a MAPKAPK2; conditions: at 100 nM
Chain of MAP kinase-activated protein kinase 2 (P49137 whole entry, looked up): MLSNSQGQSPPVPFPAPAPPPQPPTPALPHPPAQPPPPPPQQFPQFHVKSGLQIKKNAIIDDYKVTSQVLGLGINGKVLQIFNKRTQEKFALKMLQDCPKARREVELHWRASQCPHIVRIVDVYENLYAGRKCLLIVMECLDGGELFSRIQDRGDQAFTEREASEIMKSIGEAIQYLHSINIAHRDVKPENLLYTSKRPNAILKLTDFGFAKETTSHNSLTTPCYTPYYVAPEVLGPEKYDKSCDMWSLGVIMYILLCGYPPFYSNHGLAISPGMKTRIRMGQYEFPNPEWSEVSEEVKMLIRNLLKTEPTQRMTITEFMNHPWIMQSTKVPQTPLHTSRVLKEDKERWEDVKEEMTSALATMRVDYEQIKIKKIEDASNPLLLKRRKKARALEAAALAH

Chain of Mitogen-activated protein kinase 7 (Homo sapiens) (Q13164 2-816 limits assumed): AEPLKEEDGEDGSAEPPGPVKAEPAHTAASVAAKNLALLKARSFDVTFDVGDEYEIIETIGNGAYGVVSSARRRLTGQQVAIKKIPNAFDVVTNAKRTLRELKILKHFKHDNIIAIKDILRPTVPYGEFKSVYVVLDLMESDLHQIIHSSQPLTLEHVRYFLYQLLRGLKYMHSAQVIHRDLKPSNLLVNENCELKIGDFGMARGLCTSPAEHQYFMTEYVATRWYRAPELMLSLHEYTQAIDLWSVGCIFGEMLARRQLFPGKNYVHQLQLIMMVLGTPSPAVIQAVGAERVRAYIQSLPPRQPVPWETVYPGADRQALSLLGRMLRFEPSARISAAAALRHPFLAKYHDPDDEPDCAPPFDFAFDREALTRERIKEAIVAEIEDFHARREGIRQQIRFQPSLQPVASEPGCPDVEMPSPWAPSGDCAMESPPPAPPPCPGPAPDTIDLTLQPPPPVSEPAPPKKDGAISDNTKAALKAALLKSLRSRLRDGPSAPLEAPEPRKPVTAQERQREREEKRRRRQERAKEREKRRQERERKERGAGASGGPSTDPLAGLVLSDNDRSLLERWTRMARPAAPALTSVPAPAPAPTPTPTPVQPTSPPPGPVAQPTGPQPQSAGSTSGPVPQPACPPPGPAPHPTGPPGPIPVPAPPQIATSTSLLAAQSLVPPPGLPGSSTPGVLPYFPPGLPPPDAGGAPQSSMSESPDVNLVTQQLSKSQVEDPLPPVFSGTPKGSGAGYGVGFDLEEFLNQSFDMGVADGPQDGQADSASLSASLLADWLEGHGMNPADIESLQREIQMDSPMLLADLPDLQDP
Chain of Serine/threonine-protein kinase 32A (Homo sapiens) (Q8WU08 whole entry): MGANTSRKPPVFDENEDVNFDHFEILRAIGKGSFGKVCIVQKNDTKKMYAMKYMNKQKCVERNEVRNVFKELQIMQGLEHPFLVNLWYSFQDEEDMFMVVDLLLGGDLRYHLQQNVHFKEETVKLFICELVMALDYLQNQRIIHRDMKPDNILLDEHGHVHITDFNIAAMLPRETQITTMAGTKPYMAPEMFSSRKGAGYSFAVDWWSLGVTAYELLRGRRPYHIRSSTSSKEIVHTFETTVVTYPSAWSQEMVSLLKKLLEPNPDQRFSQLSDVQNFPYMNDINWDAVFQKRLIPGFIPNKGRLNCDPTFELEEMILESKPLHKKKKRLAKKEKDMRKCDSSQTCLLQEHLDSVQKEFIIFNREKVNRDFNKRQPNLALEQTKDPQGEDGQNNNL
Chain of Proto-oncogene tyrosine-protein kinase Src (P12931 2-536 limits assumed): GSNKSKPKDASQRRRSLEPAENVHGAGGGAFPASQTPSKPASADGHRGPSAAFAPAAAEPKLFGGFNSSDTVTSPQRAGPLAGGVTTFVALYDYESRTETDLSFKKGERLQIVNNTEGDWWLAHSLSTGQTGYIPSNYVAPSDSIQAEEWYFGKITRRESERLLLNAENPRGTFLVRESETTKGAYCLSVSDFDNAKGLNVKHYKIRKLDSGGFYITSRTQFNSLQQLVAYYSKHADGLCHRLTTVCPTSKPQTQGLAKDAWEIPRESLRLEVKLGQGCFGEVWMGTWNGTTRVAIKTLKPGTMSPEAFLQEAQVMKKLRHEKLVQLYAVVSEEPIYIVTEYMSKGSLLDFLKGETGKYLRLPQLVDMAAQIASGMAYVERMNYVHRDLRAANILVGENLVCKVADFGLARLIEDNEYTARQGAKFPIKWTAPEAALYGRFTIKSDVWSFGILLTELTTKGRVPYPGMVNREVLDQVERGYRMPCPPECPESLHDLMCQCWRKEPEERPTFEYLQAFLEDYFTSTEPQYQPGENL
Chain of Protein-arginine deiminase type-4 (Q9UM07 whole entry): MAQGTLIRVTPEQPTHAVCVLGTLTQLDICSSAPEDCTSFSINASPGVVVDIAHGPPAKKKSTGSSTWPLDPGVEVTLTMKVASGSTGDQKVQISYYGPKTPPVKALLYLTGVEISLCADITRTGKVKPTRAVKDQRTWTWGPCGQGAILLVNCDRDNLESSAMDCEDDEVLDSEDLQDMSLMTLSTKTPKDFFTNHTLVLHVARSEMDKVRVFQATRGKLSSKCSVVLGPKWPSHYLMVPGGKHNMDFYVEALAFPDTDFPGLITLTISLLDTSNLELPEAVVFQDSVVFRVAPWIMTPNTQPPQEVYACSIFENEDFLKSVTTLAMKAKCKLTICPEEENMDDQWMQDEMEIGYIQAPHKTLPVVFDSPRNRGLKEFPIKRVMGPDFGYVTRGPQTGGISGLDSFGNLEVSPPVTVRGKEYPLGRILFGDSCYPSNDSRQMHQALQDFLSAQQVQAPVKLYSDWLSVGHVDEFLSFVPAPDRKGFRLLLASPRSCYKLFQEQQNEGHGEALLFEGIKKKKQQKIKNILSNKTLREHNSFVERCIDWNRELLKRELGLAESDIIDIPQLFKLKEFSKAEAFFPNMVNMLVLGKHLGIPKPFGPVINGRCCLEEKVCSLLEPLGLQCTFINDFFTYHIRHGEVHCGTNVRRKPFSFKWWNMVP
Chain of Protein kinase C theta type (Q04759 whole entry, looked up): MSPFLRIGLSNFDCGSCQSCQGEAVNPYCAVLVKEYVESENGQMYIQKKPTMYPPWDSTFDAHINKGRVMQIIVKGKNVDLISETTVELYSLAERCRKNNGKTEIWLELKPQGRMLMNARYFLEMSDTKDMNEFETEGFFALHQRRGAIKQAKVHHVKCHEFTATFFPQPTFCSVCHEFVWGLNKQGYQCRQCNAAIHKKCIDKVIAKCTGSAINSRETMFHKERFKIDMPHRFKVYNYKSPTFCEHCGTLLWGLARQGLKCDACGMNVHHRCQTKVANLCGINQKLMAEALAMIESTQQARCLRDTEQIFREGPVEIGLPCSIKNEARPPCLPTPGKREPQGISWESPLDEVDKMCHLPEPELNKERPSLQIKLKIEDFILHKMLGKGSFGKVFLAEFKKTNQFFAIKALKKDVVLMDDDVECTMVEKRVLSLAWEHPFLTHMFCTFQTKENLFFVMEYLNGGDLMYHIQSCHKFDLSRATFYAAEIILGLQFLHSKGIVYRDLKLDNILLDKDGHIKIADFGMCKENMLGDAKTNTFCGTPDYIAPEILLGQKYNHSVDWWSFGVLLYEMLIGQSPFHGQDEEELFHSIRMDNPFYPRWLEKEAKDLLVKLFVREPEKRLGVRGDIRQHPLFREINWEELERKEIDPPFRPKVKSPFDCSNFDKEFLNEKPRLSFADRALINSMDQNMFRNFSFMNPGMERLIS
Chain of Adenosine receptor A1 (Homo sapiens) (P30542 whole entry): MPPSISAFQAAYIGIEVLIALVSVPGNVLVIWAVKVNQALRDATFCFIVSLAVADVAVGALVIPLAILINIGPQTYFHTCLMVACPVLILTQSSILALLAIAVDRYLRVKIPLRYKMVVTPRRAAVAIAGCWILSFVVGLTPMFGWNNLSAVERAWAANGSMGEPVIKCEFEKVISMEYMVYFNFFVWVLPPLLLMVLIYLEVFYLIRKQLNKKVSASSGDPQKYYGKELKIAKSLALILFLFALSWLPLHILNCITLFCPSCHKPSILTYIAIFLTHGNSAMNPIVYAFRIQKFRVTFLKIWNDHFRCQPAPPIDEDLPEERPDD

% of control [1]: 35%
Compound: CC(=O)c1cc(-c2ccccc2OCC2CC2)c2ncccn12

Compound: CN(C)C/C=C/C(=O)Nc1ccc(C(=O)N2CCCC(Nc3ncc(Cl)c(-c4c[nH]c5ccccc45)n3)C2)cc1 (stereo not given)
% of control [2]: 100%

Compound: CN(C)CCOc1ccc(-c2nc(-c3ccncc3)c(-c3ccc4c(c3)CC/C4=N\O)[nH]2)cc1
% of control [3]: 85%

Compound: Nc1cnc(N2CCc3cc(S(=O)(=O)Nc4c(F)cc(Cl)cc4F)cc(N4CCCC4=O)c32)nc1 [TP-020n]
% of control [4]: 100%

Compound: CNC(=O)Nc1ccc(-c2nc(N3CC4CCC(C3)O4)c3cnn(C4CCC5(CC4)OCCO5)c3n2)cc1
% of inhibition [5]: 3%
% of control [6]: 83%

Compound: COCC(=O)NC/C=C/c1ccc2ncnc(Nc3ccc(Oc4ccc(C)nc4)c(C)c3)c2c1 [CP-724714]
% of control [7]: 91%

IC50 [8]: 250 nM
Compound: CCn1c(-c2nc3cc(C(=O)N4CCCC(N)C4)ccc3n2C)cc2ccccc21 (stereo not given)

Compound: CCC(=O)N1CCN(c2ccc(-n3c(=O)ccc4cnc5ccc(-c6cnc7ccccc7c6)cc5c43)cc2C(F)(F)F)CC1
% of control [9]: 100%

Compound: Cc1cc(F)c(C(=O)Nc2cccc(-c3nncn3C(C)C)n2)cc1-n1cnc(C2CC2)c1
% of control [10]: 57%
